Measured values from US9365604B2, “Oligomer-nucleoside phosphate conjugates” (NEKTAR THERAPEUTICS, priority 2007, dated 2016).
Like-named read-outs stand apart in the source and are kept apart here.

Legend:
[1] = system: Caco-2 cells; experiment: Bi-directional permeability in Caco-2 cells
From the text: Bi-Directional Permeability of PEG-Floxuridine Conjugates in Caco-2 and MDCK Cells

[2] = system: MIA PaCa-2; experiment: In vitro cytotoxicity assay (CellTiter-Glo); assay type: cell-based; conditions: for IC50: 72 h exposure, CellTiter-Glo
Method in brief: (§1)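 Cells exposed to compound for 72 h, with viability measured by CellTiter-Glo and IC50 values derived.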

[3] = system: HT-29; experiment: In vitro cytotoxicity assay (CellTiter-Glo); assay type: cell-based; conditions: for IC50: 72 h exposure, CellTiter-Glo
Method in brief: as §1

[4] = system: HCT-116; experiment: In vitro cytotoxicity assay (CellTiter-Glo); assay type: cell-based; conditions: for IC50: 72 h exposure, CellTiter-Glo
Method in brief: as §1

[5] = system: CCRF-CEM; experiment: In vitro cytotoxicity assay (CellTiter-Glo); assay type: cell-based; conditions: for IC50: 72 h exposure, CellTiter-Glo
Protocol: (§2) The objective of these studies was to determine the IC50 values for PEG-gemcitabine conjugates against gemcitabine-resistant cell lines based on data from previous Xenograft studies. The cells were exposed for 72 h, and cell viability assessed by using the CellTiter-Glo assay.

[6] = system: K-562; experiment: In vitro cytotoxicity assay (CellTiter-Glo); assay type: cell-based; conditions: for IC50: 72 h exposure, CellTiter-Glo
Protocol: as §2

[7] = system: NCI-H522; experiment: In vitro cytotoxicity assay (CellTiter-Glo); assay type: cell-based; conditions: for IC50: 72 h exposure, CellTiter-Glo
Protocol: as §2

[8] = system: NCI-H23; experiment: In vitro cytotoxicity assay (CellTiter-Glo); assay type: cell-based; conditions: for IC50: 72 h exposure, CellTiter-Glo
Protocol: as §2

[9] = system: SW-620; experiment: In vitro cytotoxicity assay (CellTiter-Glo); assay type: cell-based; conditions: for IC50: 72 h exposure, CellTiter-Glo
Protocol: as §2

[10] = system: DLD-1; experiment: In vitro cytotoxicity assay (CellTiter-Glo); assay type: cell-based; conditions: for IC50: 72 h exposure, CellTiter-Glo
Protocol: as §2

[11] = system: RL; experiment: In vitro cytotoxicity assay (CellTiter-Glo); assay type: cell-based; conditions: for IC50: 72 h exposure, CellTiter-Glo
Protocol: as §2

[12] = system: NCI-H460; experiment: In vitro cytotoxicity assay (CellTiter-Glo); assay type: cell-based; conditions: for IC50: 72 h exposure, CellTiter-Glo
Protocol: as §2

[13] = system: HL-60; experiment: In vitro cytotoxicity assay (CellTiter-Glo); assay type: cell-based; conditions: for IC50: 72 h exposure, CellTiter-Glo
Protocol: as §2

[14] = system: AS283; experiment: In vitro cytotoxicity assay (CellTiter-Glo); assay type: cell-based; conditions: for IC50: 72 h exposure, CellTiter-Glo
Protocol: as §2

[15] = system: DU145; experiment: Sulforhodamine B (SRB) growth inhibition assay; assay type: cell-based, Human; conditions: SRB assay
[16] = system: MCF7; experiment: Sulforhodamine B (SRB) growth inhibition assay; assay type: cell-based, Human; conditions: for ratio vs gem (GI50) MCF7: GI50 of conjugate vs gemcitabine; for GI50: SRB assay
[17] = system: Hop62; experiment: Sulforhodamine B (SRB) growth inhibition assay; assay type: cell-based, Human; conditions: for ratio vs gem (GI50) Hop62: GI50 of conjugate vs gemcitabine; for GI50: SRB assay
[18] = system: COLO205; experiment: Sulforhodamine B (SRB) growth inhibition assay; assay type: cell-based, Human; conditions: for GI50: COLO205, SRB assay; for ratio vs gem (GI50) COLO-205: GI50 of conjugate vs gemcitabine
[19] = system: HCT15; experiment: Sulforhodamine B (SRB) growth inhibition assay; assay type: cell-based, Human; conditions: for ratio vs gem (GI50) HCT15: GI50 of conjugate vs gemcitabine; for GI50: SRB assay
[20] = system: A2780; experiment: Sulforhodamine B (SRB) growth inhibition assay; assay type: cell-based, Human; conditions: for ratio vs gem (GI50) A2780: GI50 of conjugate vs gemcitabine; for GI50: SRB assay
[21] = system: HT29; experiment: Sulforhodamine B (SRB) growth inhibition assay; assay type: cell-based, Human; conditions: for ratio vs gem (GI50) HT29: GI50 of conjugate vs gemcitabine; for GI50: SRB assay
[22] = system: NCI/ADR-RES; experiment: Sulforhodamine B (SRB) growth inhibition assay; assay type: cell-based, Human
Protocol: In Vitro Screening of PEG-Gemcitabine Monophosphate in Selected Human Cancer Cell Lines
(§3) The aim was to determine the GI50 values for PEG-floxuridine conjugates against a panel of cell lines, and based on previous data from Xenograft studies. The cells were exposed for 24 h, and cell viability assessed by using the Sulphorhodamine (SRB) assay. The test articles were solubilized in dimethylsulfoxide and were tested at four different molar (M) concentrations; 10^−4, 10^−5, 10^−6, M. GI50 (the concentration needed to reduce the growth of treated cells to half that of untreated control cells) was calculated for each condition ([(Ti−Tz)/(C-Tz)]×100=50, where Ti, Tz, and C refer to absorbance values obtained from each tested concentration, time zero, and control treatment, respectively).
as §3, with “The objective” for “The aim”, “the IC50” for “the GI50”, “for PEG-gemcitabine” for “for PEG-floxuridine”, “in dimethyl sulfoxide” for “in dimethylsulfoxide”, “10^−6, 10^−7” for “10^−6,”, “condition ([(Ti−Tz)/(C−Tz)]×100=50,” for “condition ([(Ti−Tz)/(C-Tz)]×100=50,”

[23] = 48 h drug exposure, read-out: GI50 (molar concentration) in Cell Line DU145
[24] = cells exposed for 24 h, read-out: GI50 values (μM) DU145
[25] = 48 h drug exposure, read-out: GI50 (molar concentration) in Cell Line MCF7
[26] = cells exposed for 24 h, read-out: GI50 values (μM) MCF7
[27] = 48 h drug exposure, read-out: GI50 (molar concentration) in Cell Line Hop62
[28] = cells exposed for 24 h, read-out: GI50 values (μM) Hop62
[29] = 48 h drug exposure, read-out: GI50 (molar concentration) in Cell Line COLO205
[30] = cells exposed for 24 h, read-out: GI50 values (μM) COLO205
[31] = 48 h drug exposure, read-out: GI50 (molar concentration) in Cell Line HCT15
[32] = cells exposed for 24 h, read-out: GI50 values (μM) HCT15
[33] = 48 h drug exposure, read-out: GI50 (molar concentration) in Cell Line A2780
[34] = cells exposed for 24 h, read-out: GI50 values (μM) A2780
[35] = 48 h drug exposure, read-out: GI50 (molar concentration) in Cell Line HT29
[36] = cells exposed for 24 h, read-out: GI50 values (μM) HT29
[37] = cells exposed for 24 h, read-out: GI50 values (μM) NCI/ADR-RES

Which results are given for COCCOCCOCCOCCOCCOCCOCCOP(=O)(O)OC[C@H]1O[C@@H](n2ccc(N)nc2=O)C(F)(F)[C@@H]1O.Cl [Gemcitabine Mono (mPEG7), 5′-gemcitabine methoxy hepta(ethylene glycol) phosphate hydrochloride]?
Papp A -> B [1]: <0.06 10^−6 cm/s; Papp B -> A [1]: <0.08 10^−6 cm/s; Significant efflux [1]: No; percent recovery A -> B [1]: 74%; percent recovery B -> A [1]: 86%; Ratio vs gem (IC50) MIA PaCa-2 [2]: 3; IC50 [2]: 84 nM; Ratio vs gem (IC50) HT-29 [3]: 56; IC50 [3]: 6250 nM; Ratio vs gem (IC50) HCT-116 [4]: 2; IC50 [4]: 4 nM; Ratio vs gem (IC50) CCRF-CEM [5]: 1; IC50 [5]: 10 nM; Ratio vs gem (IC50) K-562 [6]: 2; IC50 [6]: 1150 nM; Ratio vs gem (IC50) NCI-H522 [7]: 6; IC50 [7]: 26 nM; Ratio vs gem (IC50) NCI-H23 [8]: 7; IC50 [8]: 47 nM; Ratio vs gem (IC50) SW-620 [9]: 4; IC50 [9]: 182 nM; Ratio vs gem (IC50) DLD-1 [10]: 2; IC50 [10]: 36 nM; Ratio vs gem (IC50) RL [11]: 1; IC50 [11]: 259 nM; Ratio vs gem (IC50) NCI-H460 [12]: 3; IC50 [12]: 48 nM; Ratio vs gem (IC50) HL-60 [13]: 2; IC50 [13]: 2.6 nM; Ratio vs gem (IC50) AS283 [14]: 3; IC50 [14]: 398 nM; GI50 [15, 23]: < 0.1 µM; GI50 [15, 24]: < 0.1 µM; ratio vs gem (GI50) MCF7 [16]: 2; GI50 [16, 25]: 0.16 µM; GI50 [16, 26]: 0.16 µM; ratio vs gem (GI50) Hop62 [17]: 1; GI50 [17, 27]: 2.4 µM; GI50 [17, 28]: 2.4 µM; GI50 [18, 29]: 0.18 µM; GI50 [18, 30]: 0.18 µM; ratio vs gem (GI50) COLO-205 [18]: 1; ratio vs gem (GI50) HCT15 [19]: 14; GI50 [19, 31]: 2.3 µM; GI50 [19, 32]: 2.3 µM; ratio vs gem (GI50) A2780 [20]: 2; GI50 [20, 33]: 0.15 µM; GI50 [20, 34]: 0.15 µM; ratio vs gem (GI50) HT29 [21]: 15; GI50 [21, 35]: 32 µM; GI50 [21, 36]: 32 µM; GI50 ([22]; 48 h drug exposure, read-out: GI50 (molar concentration) in Cell Line NCI/ADR-RES): 2 µM; GI50 [22, 37]: 2 µM

For COCCOCCOCCOP(=O)(O)OC[C@H]1O[C@@H](n2ccc(N)nc2=O)C(F)(F)[C@@H]1O.Cl [Gemcitabine Mono (mPEG3), 5′-gemcitabine methoxy tri(ethylene glycol) phosphate hydrochloride], which “Papp A -> B” value [1] is on record?
Its value is <0.06 10^−6 cm/s.

What about the “Papp B -> A” value [1] of the same molecule?
Its value is <0.08 10^−6 cm/s.

What about the Significant efflux [1] of the same molecule?
Its Significant efflux is “No”.

And the “percent recovery A -> B” value [1]?
The value was 78%.

What about the “percent recovery B -> A” value [1] of the same molecule?
Its value is 90%.

And the “Ratio vs gem (IC50) MIA PaCa-2” value [2]?
The value was 3.

And the IC50 [2]?
The IC50 was 76 nM.

And the “Ratio vs gem (IC50) HT-29” value [3]?
The value was 7.

What about the IC50 [3] of the same molecule?
Its IC50 is 755 nM.

What about the “Ratio vs gem (IC50) HCT-116” value [4] of the same molecule?
Its value is 2.

What about the IC50 [4] of the same molecule?
Its IC50 is 2.9 nM.

And the “Ratio vs gem (IC50) CCRF-CEM” value [5]?
The value was 1.

And the IC50 [5]?
The IC50 was 6.5 nM.

And the “Ratio vs gem (IC50) K-562” value [6]?
The value was 1.

And the IC50 [6]?
The IC50 was 914 nM.

What about the “Ratio vs gem (IC50) NCI-H522” value [7] of the same molecule?
Its value is 8.

What about the IC50 [7] of the same molecule?
The IC50 was 36 nM.

What about the “Ratio vs gem (IC50) NCI-H23” value [8] of the same molecule?
Its value is 3.

And the IC50 [8]?
Its IC50 is 18 nM.

What about the “Ratio vs gem (IC50) SW-620” value [9] of the same molecule?
Its value is 2.

And the IC50 [9]?
Its IC50 is 95 nM.

And the “Ratio vs gem (IC50) DLD-1” value [10]?
Its value is 4.

And the IC50 [10]?
The IC50 was 93 nM.

And the “Ratio vs gem (IC50) RL” value [11]?
The value was 2.

What about the IC50 [11] of the same molecule?
Its IC50 is 568 nM.

What about the “Ratio vs gem (IC50) NCI-H460” value [12] of the same molecule?
The value was 3.

What about the IC50 [12] of the same molecule?
The IC50 was 43 nM.

What about the “Ratio vs gem (IC50) HL-60” value [13] of the same molecule?
Its value is 1.

What about the IC50 [13] of the same molecule?
The IC50 was 2 nM.

What about the “Ratio vs gem (IC50) AS283” value [14] of the same molecule?
The value was 3.

And the IC50 [14]?
The IC50 was 408 nM.

What about the GI50 [15, 23] of the same molecule?
Its GI50 is less than 0.1 µM.

And the GI50 [15, 24]?
The GI50 was less than 0.1 µM.

What about the “ratio vs gem (GI50) MCF7” value [16] of the same molecule?
Its value is 2.

And the GI50 [16, 25]?
Its GI50 is 0.16 µM.

And the GI50 [16, 26]?
Its GI50 is 0.158 µM.

And the “ratio vs gem (GI50) Hop62” value [17]?
Its value is 1.

And the GI50 [17, 27]?
The GI50 was 2.6 µM.

And the GI50 [17, 28]?
The GI50 was 2.6 µM.

And the GI50 [18, 29]?
Its GI50 is 0.16 µM.

What about the GI50 [18, 30] of the same molecule?
Its GI50 is 0.16 µM.

What about the “ratio vs gem (GI50) COLO-205” value [18] of the same molecule?
The value was 1.

And the “ratio vs gem (GI50) HCT15” value [19]?
Its value is 14.

And the GI50 [19, 31]?
The GI50 was 2.2 µM.

And the GI50 [19, 32]?
Its GI50 is 2.2 µM.

What about the “ratio vs gem (GI50) A2780” value [20] of the same molecule?
Its value is 2.

And the GI50 [20, 33]?
Its GI50 is 0.15 µM.

And the GI50 [20, 34]?
The GI50 was 0.15 µM.

And the “ratio vs gem (GI50) HT29” value [21]?
The value was 13.

What about the GI50 [21, 35] of the same molecule?
Its GI50 is 28 µM.

What about the GI50 [21, 36] of the same molecule?
Its GI50 is 28 µM.

What about the GI50 [22, 37] of the same molecule?
The GI50 was 1.7 µM.
